# Patent publication US5496703A, “Indirect immunoassay for dioxinlike compounds” (priority 1993, dated 1996)
# Entries after “also recorded” stand apart in the source; their conditions may differ.
# Legend:
# [1] = test system: total cell lysate protein tyrosylphosphorylation in X3 human lymphoblastoma cells; assay: ELISA with antiphosphotyrosine monoclonal antibody, X3 cell lysate; assay type: cell-based; details: 16 hours
# Procedure: (§1) The X3 human lymphoblastoma cells (Genetest, Wolburn, Mass.) were grown in 75 cm^2 T-flasks in RPMI 1640 medium (Gibco) containing 9% horse serum. Any cell or cell line expressing cytochrome P-450IA1 may be used. The cells were cultured at 37° C. in a 5% CO2 (balance air) environment. Cells were subcultured by centrifuging (1000 rpm, 3 minutes) and resuspended in fresh media to a volume of 50 mL (at a cell density of 1.0×10^6 cells/mL). The TCDD-corn oil solution was homogenized with serum to a final concentration of 0.10 μg/mL. The TCDD-serum was added at concentrations of 0, 0.02, 0.05, 0.1, 0.5 and 1.0 nM per flask and incubated for 16 hours. After the appropriate incubation time, the cells were harvested by centrifugation and washed three times (PBS, […]). A final cell count was then determined.
# ELISA were performed with 96-well microtiter plates precoated with antigen. X3 cell lysate was used as antigen and was prepared as a series of geometric dilutions ranging from 0.4 to 500 μg protein/mL PBS. One-tenth mL from each dilution was promptly pipetted into the wells of the microtiter plate in quadruplicate. […] Peroxidase activity was determined after incubation with substrate (0.03% H2 O2 and 1 mM 2,2'-azinodi(d-ethyl-benzthiazoline sulfonic acid-6) dissolved in 100 mM sodium citrate (pH 4.2) at 22° C. At the first visualization of color change A415 values were recorded.
# [2] = test system: protein kinase C; details: cited from earlier work
# [3] = test system: DBA/2 strain; details: DBA/2 mouse; cited from earlier work
# [4] = test system: cytochrome P-450IA1 aryl hydrocarbon hydroxylase; details: 3 days post-injection (Poland et al. 1974); cited from earlier work
# [5] = test system: protein tyrosylphosphorylation in X3 human lymphoblastoma cells; assay: Immunoblot / densitometry of X3 cell lysate phosphotyrosyl proteins; assay type: cell-based
# Procedure: The indicated densitometric measurements were made on a BioImage AK Kodak Visage 110.
# as §1
# The separation of cell lysate proteins by means of SDS PAGE was performed by mixing the cell lysate 1:1 with a double strength sodium dodecyl sulfate sample buffer and heating the solution at 100° C. for 3 minutes prior to one-dimensional SDS polyacrylamide gel electrophoresis with 10% polyacrylamide. After electrophoresis, a Milliblot SDE electroblot apparatus (Millipore, Bedford, Mass.) was used to transfer the proteins from the polyacrylamide gels to an Immobilon™ membrane filter (Millipore). Complete transfers were accomplished in 25-30 min at 500 mA and were assessed by tracking pre-stained molecular weight standards onto the membrane filter. Membrane filters were blocked by incubating in TBS (Tris buffered saline) containing 5% milk for 30 minutes at 37° C. The membranes were then washed in TBST (TBS with 0.05% Tween 20) and incubated overnight with antiphoshphotyrosine monoclonal antibody (1.5 μg/mL) in TBST. The primary antibody was removed, and the membranes were washed four times in TBST. To visualize the antibody reaction, the membranes were incubated for 3 hours at 37° C. with alkaline phosphatase-conjugated antimouse IgG diluted 1:1000 in TBST, washed 3 times in TBST, and developed for 15 to 30 minutes. Determination of molecular weights of immuno-stained proteins was performed by adding molecular weight standards (Bio Rad) to reference lanes and staining the membrane filters with amido black.
# An estimate of the limit of detection of dioxinlike activity can be made using the 0.2 nM dose as the minimally effective dose. At this level of administration the 57 kDalton band becomes easily visible. Assuming a 100 μL incubation well (e.g., in a 96 well microtiter plate), the diethyl ether extract would have to contain approximately 37.5 pg of dioxin equivalents to initiate a tyrosylphosphorylation of the 57 kDalton protein. This amount would be present in the extract of a 2 g sample containing 20 parts per trillion of dioxin equivalents. If the 33 kDalton protein were used to quantitate the dioxinlike activity, the limit of detection based upon a response at the EC50 of 0.04 nM, would be approximately 4 ppt. Since it is generally believed that an action concentration of dioxin is 50 ppt and current instrumental methods detect approximately 3.5 ppt, this level of analysis is sufficient for initial regulatory or health considerations.
smiles,measurement,setting,value
"Clc1cc2c(cc1Cl)Oc1cc(Cl)c(Cl)cc1O2 [TCDD, 2,3,7,8-tetrachlorodibenzo-p-dioxin]",concentration of maximal total protein tyrosylphosphorylation,[1],1 nM
same,EC50,[1]; Homo sapiens,0.13 nM
same,protein kinase C activity,[2],increases the activity of protein kinase C
same,susceptibility to TCDD toxicity,[3],relatively resistant
same,"published ED50, induction of aryl hydrocarbon hydroxylase specific activity",[4],approximately 3 μg/kg
same,minimal effective concentration,"[5]; Homo sapiens, 16 h, limit-of-detection estimate, read-out: minimally effective dose (57 kDalton band easily visible)",0.0002 µM
same,EC50,"[5]; Homo sapiens, densitometry of immunoblot, 16 hours, read-out: EC50, 33 kDalton protein tyrosylphosphorylation",0.04 nM
same,concentration of maximal 33 kDalton protein tyrosylphosphorylation,"[5]; densitometry of immunoblot, 16 hours",0.1 nM
same,pTP at 57 kDaltons,[5]; immunoblot,highly phosphorylated at tyrosine residues; also recorded: appeared in all X3 cells treated with TCDD
same,pTP at 110 kDaltons,[5]; immunoblot,decreased with increasing TCDD concentration; also recorded: decreased in intensity
